{
  "source": "patent US20110207660A1",
  "about": "“PHARMACEUTICAL FORMULATIONS OF AN HCV PROTEASE INHIBITOR IN A SOLID MOLECULAR DISPERSION” (Schering Corporation, priority 2008, published 2011)",
  "key": {"[1]": {"test": "in vitro IC90 of Compound I", "conditions": "reference line in FIGS. 5A and 5B"}, "[2]": {"test": "Clinical Study 2: once-a-day 300 mg Compound I with 100 mg ritonavir for 10 days, healthy human subjects, fed", "conditions": "in vivo, steady state, Day 10, formulation G tablets 3×100 mg QD + 100 mg ritonavir QD, 8 healthy human subjects, read-out: Cmin Range", "protocol": "The pharmacokinetic profile of Compound I following once-a-day oral administration of 300 mg Compound I in a formulation of the present invention in tablet form (specifically exemplary formulation G described in Table 3A, 3×100 mg, QD) in combination with 100 mg ritonavir (RTV, 1×100 mg, QD) for 10-days to healthy human subjects under fed conditions (i.e., following a standard meal) was determined. […] Blood was collected from each subject pre-dose (on Days 7, 8, and 9), as well as 0.5, 1, 1.5, 2, 3, 4, 5, 6, 7, 8, 10, 12, 16, and 24 hr post-dose (on Day 10) for determining the concentration of Compound I in the plasma and to calculate the pharmacokinetic parameters for each formulation."}, "[3]": {"test": "Biopharmaceutics Classification System class", "type": "physicochemical", "conditions": "low solubility and low permeability"}},
  "data": [
    {"compound": "CCCC[C@H](NC(=O)[C@@H]1[C@@H]2[C@H](CN1C(=O)[C@@H](NC(=O)NC1(CS(=O)(=O)C(C)(C)C)CCCCC1)C(C)(C)C)C2(C)C)C(=O)C(=O)NC1CC1", "note": "[Compound I]", "values": [
      {"measurement": "in vitro IC90", "setting": "[1]", "value": 0.028, "unit": "µg/mL"},
      {"measurement": "concentration at 10 days", "setting": "[2]", "value": "167 to 426", "unit": "ng/mL"},
      {"measurement": "Biopharmaceutics Classification System class", "setting": "[3]", "value": "Class IV"}
    ]}
  ]
}
